Reference: PubChem BioAssay (NCI)
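Results reflect a 48-hour exposure of cells in 96-well plates to compound at five concentrations. TGI denotes the concentration required for complete inhibition of growth.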

What was measured:
Assay in all cases: NCI tumour cell line growth inhibition, 48 h
M14 melanoma = system: M14 melanoma
SW-620 colon = system: SW-620 colon
MDA-MB-231 breast = system: MDA-MB-231 breast
PC-3 prostate = system: PC-3 prostate
HCT-15 colon = system: HCT-15 colon
NCI/ADR-RES ovarian = system: NCI/ADR-RES ovarian
OVCAR-4 ovarian = system: OVCAR-4 ovarian
LOX IMVI melanoma = system: LOX IMVI melanoma
UACC-257 melanoma = system: UACC-257 melanoma
RPMI-8226 leukemia = system: RPMI-8226 leukemia
SF-268 CNS = system: SF-268 CNS
786-0 renal = system: 786-0 renal
SF-539 CNS = system: SF-539 CNS

Row | SMILES | TGI (M14 melanoma) | TGI (SW-620 colon) | TGI (MDA-MB-231 breast) | TGI (PC-3 prostate) | TGI (HCT-15 colon) | TGI (NCI/ADR-RES ovarian) | TGI (OVCAR-4 ovarian) | TGI (LOX IMVI melanoma) | TGI (UACC-257 melanoma) | TGI (RPMI-8226 leukemia) | TGI (SF-268 CNS) | TGI (786-0 renal) | TGI (SF-539 CNS)
1 | Cn1c2ccccc2c(=O)c2c(O)cc3c(c21)C=CC1(CCCC1)O3 | > 100 µM | > 100 µM | > 100 µM | > 100 µM | > 100 µM | > 100 µM | > 100 µM | > 100 µM | > 100 µM | > 100 µM | > 100 µM | > 100 µM | > 100 µM
2 | CCC(CC)C(=O)OC[n+]1cccc(-c2c(COC(=O)NC(C)C)c(COC(=O)NC(C)C)c3n2CCC3)c1 | > 100 µM | > 100 µM | > 100 µM | > 100 µM | > 100 µM | > 100 µM | > 100 µM | > 100 µM | > 100 µM | > 100 µM | > 100 µM | > 100 µM | > 100 µM
3 | COc1ccc2c(c1)N(C(C)=O)CN1C(=O)CCC21 (stereo unspecified) | > 100 µM | > 100 µM | > 100 µM | > 100 µM | > 100 µM | > 100 µM | > 100 µM | > 100 µM | > 100 µM | > 100 µM | > 100 µM | > 100 µM | > 100 µM
4 | O=c1oc2ccccc2cc1-c1nnc(-c2ccccc2)s1 | > 100 µM | > 100 µM | 46.3 µM | > 100 µM | > 100 µM | > 67.2 µM | > 100 µM | > 100 µM | > 100 µM | > 100 µM | > 100 µM | > 66.6 µM | > 41.8 µM
5 | CCOC(=O)C1=C(C)N(C)C(=S)NC1c1cccc(O)c1 (stereo unspecified) | 83.1 µM | > 100 µM | > 100 µM | > 100 µM | > 100 µM | 54.9 µM | > 100 µM | > 100 µM | > 100 µM | > 100 µM | > 100 µM | > 100 µM | > 100 µM
6 | NC1=CC(C(=O)c2ccncc2)c2nc3ccccc3nc21 (stereo unspecified) | > 100 µM | > 100 µM | > 100 µM | > 100 µM | > 100 µM | > 100 µM | > 100 µM | 88.1 µM | > 100 µM | > 100 µM | > 100 µM | > 100 µM | > 100 µM
7 | Cc1ccc(S(=O)(=O)NC(=O)NCC(=O)NCC(=O)O)cc1 | > 100 µM | > 100 µM | > 100 µM | > 100 µM | > 100 µM | > 100 µM | > 100 µM | > 100 µM | > 100 µM | > 100 µM | > 100 µM | > 100 µM | > 100 µM
